PMC12452952, “Subtype-specific structural features of the hearing loss–associated human P2X2 receptor” (Proceedings of the National Academy of Sciences of the …, 2025)

Molecular target: T1, human P2X2 receptor (hP2X2R) (Homo sapiens, UniProt Q9UBL9)
T1 construct: gene P2RX2; full-length wild-type
T1 sequence (Q9UBL9 1-471): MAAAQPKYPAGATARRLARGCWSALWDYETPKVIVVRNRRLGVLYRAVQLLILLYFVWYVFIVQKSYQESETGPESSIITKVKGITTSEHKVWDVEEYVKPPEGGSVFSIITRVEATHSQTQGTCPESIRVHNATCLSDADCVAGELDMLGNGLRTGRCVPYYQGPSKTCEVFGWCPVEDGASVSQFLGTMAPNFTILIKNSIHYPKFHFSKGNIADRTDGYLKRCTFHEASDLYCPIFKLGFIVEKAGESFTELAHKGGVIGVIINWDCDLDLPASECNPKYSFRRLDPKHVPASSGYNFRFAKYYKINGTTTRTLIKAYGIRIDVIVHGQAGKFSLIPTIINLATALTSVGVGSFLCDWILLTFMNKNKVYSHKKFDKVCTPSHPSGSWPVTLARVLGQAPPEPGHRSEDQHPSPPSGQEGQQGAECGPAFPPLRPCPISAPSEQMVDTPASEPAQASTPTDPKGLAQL
Assay: cryo-EM structures of ATP-bound homotrimer ([…] and […] Å); EC50 by two-electrode voltage clamp in Xenopus oocytes (divalent-free)
Format: cell-based

Nc1ncnc2c1ncn2[C@@H]1O[C@H](COP(=O)(O)OP(=O)(O)OP(=O)(O)O)[C@@H](O)[C@H]1O [ATP]
EC50: 0.156 ± 0.096 µM
